US20060063736A1, “Compositions and methods for inhibiting mucin-type O-linked glycosylation” (priority 2004, published 2006)
Like-named read-outs stand apart in the source and are kept apart here.

Tests used:
Jurkat cells = test: HPA staining of Jurkat cells (Tn-antigen), flow cytometry; type: cell-based, human; conditions: Homo sapiens, 48 h, read-out: EC50 of inhibition of HPA staining
Experimental: Jurkat cells were seeded at 250,000 cells/well (determined by Coulter cell counter) in 12-well polystyrene tissue culture plates in 1.0 mL of media and treated with various concentrations of 1-68A or 2-68A from 50 mM dimethyl sulfoxide (DMSO) stock solutions or doxorubicin or campothecin from 1 mM DMSO stock solutions. After 2 d, cells were harvested, washed twice with PBS buffer (PBS, pH 7.4, 0.1% FCS, 0.1% NaN3 w/v) and stained with FITC-HPA (1 μg/mL) or FITC-Con A (5 μg/mL with 1 mM CaCl2) in PBS, pH 7.4 in the dark for 1 h at 4° C. Cells were washed twice with PBS buffer, resuspended in 300 μL of PBS buffer and analyzed by flow cytometry (FacsCaliber, BD Instruments). Annexin-V staining was performed according to the manufacturer's protocols (Invitrogen).
To directly monitor ppGalNAcT activities in cells, Jurkat cells (human T-cell lymphoma), which are known to produce only the Tn-antigen (FIG. 1) as their O-linked glycans, were chosen. Piller et al. (1990) J. Biol. Chem. 265:9264-9271. Changes in Tn-antigen expression on the surface of Jurkat cells were monitored by HPA binding followed by flow cytometry analysis. Con A staining of N-linked glycans was used as a control for non-specific inhibition of protein glycosylation. Baenziger and Fiete (1979) J. Biol. Chem. 254:2400-2407.

mppGalNAcT-3 = biological target: T1, mppGalNAcT-3 (Mus musculus, UniProt P70419); test: ELLA for ppGalNAcTs, mppGalNAcT-3; type: biochemical, murine; conditions: 20 μM UDP-GalNAc, 50 μM EA2 peptide 4
T1 construct: plasmids encoding truncated secreted ppGalNAcTs-1 to −5, -7, -10 and -11; made in house; host or cells: COS-7
T1 sequence (P70419 38-633 limits assumed): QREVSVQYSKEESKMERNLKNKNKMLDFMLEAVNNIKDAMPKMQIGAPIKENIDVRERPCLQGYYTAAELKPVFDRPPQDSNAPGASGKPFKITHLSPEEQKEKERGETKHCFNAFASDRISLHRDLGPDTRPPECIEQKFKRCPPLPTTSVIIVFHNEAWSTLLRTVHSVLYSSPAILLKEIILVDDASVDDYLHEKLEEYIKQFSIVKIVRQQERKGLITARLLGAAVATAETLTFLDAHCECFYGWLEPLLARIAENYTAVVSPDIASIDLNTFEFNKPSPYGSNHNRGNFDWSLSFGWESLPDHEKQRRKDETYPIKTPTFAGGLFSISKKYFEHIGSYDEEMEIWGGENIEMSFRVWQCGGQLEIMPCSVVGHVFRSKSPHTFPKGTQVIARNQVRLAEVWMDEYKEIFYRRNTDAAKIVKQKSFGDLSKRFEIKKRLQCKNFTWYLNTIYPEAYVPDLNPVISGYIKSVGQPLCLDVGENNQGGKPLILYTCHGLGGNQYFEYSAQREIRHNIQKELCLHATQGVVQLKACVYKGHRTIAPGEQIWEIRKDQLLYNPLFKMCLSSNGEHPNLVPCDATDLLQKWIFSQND
Experimental: COS-7 cells were transiently transfected with plasmids encoding truncated secreted ppGalNAcTs-1 to −5, -7, -10 and -11 as previously described. Hagen et al. (1997) J. Biol. Chem. 272:13843-13848. The crude conditioned medium was used as the enzyme source.
Standard reaction conditions for ppGalNAcT assays were as follows. The reaction mixture contained the following components in a final volume of 25 μL: 10 mM MnCl2, 40 mM sodium cacodylate, 40 mM β-mercaptoethanol, 0.1% Triton X-100, pH 6.5, 5 μL of conditioned media, and various concentrations of EA2 peptide 4, UDP-GalNAc and inhibitor. All uridine-based compounds were dissolved in dimethyl sulfoxide (DMSO). […] Reaction rates were linear over the period monitored (20-30 min).
96-Well NeutrAvidin-coated plates were prewashed 3 times with 200 μL of wash buffer (25 mM Tris, 150 mM NaCl, 0.1% bovine serum albumin (BSA) (w/v), and 0.05% Tween (v/v), pH 7.2). […] After 3 washes with 200 μL of PBS, bound HPA-HRP was quantified by the addition of 100 μL of TMB peroxide solution. […] HRP activity was terminated by the addition of 50 μL of 2 N H2SO4 and the resulting solution was analyzed at 450 nm using a UV/Vis microtiter plate reader. The amount of product generated by the ppGalNAcT was extrapolated from absorbance values using an equation fit to the standard curve derived from Origin 6.1 software.

| Structure (SMILES) | EC50 (Jurkat cells; Jurkat cells, 2 d treatment) [µM] | IC50 (mppGalNAcT-3) [µM] | EC50 (Jurkat cells; Jurkat) [µM] |
| --- | --- | --- | --- |
| O=c1ccn([C@@H]2O[C@H](CON=Cc3ccc(O)c(O)c3O)[C@@H](O)[C@H]2O)c(=O)[nH]1 [1-68A] | ~80 | 40 ± 2 |  |
| O=C(CON=Cc1ccc(O)c(O)c1O)NC[C@H]1O[C@@H](n2ccc(=O)[nH]c2=O)[C@H](O)[C@@H]1O [2-68A] |  | 38 ± 4 | ~80 |
